Measurements as given in PubChem BioAssay (NCI).
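Tested at 5 concentrations; 48 h exposure; 96-well plates; endpoints linearly interpolated, else capped at highest concentration. GI50: concentration for 50% inhibition of growth. TGI: concentration producing complete growth inhibition.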

Columns and labels:
Assay in all cases: DTP human tumour cell line panel, 48 h
U251 CNS = system: U251 CNS
HL-60(TB) leukemia = system: HL-60(TB) leukemia
EKVX NSCLC = system: EKVX NSCLC
TK-10 renal = system: TK-10 renal
RXF 393 renal = system: RXF 393 renal
LOX IMVI melanoma = system: LOX IMVI melanoma
RPMI-8226 leukemia = system: RPMI-8226 leukemia
OVCAR-8 ovarian = system: OVCAR-8 ovarian
SR leukemia = system: SR leukemia
KM12 colon = system: KM12 colon
SNB-19 CNS = system: SNB-19 CNS
NCI-H522 lung = system: NCI-H522 lung
OVCAR-5 ovarian = system: OVCAR-5 ovarian
UO-31 renal = system: UO-31 renal
BT-549 breast = system: BT-549 breast
HT29 colon = system: HT29 colon
MDA-MB-435 = system: MDA-MB-435
PC-3 prostate = system: PC-3 prostate
IGROV1 ovarian = system: IGROV1 ovarian
HCC-2998 colon = system: HCC-2998 colon
SF-295 CNS = system: SF-295 CNS
CAKI-1 renal = system: CAKI-1 renal
HCT-15 colon = system: HCT-15 colon
786-0 renal = system: 786-0 renal
NCI/ADR-RES ovarian = system: NCI/ADR-RES ovarian
A549 NSCLC = system: A549 NSCLC
M14 melanoma = system: M14 melanoma
MOLT-4 leukemia = system: MOLT-4 leukemia
HOP-62 NSCLC = system: HOP-62 NSCLC
SK-OV-3 ovarian = system: SK-OV-3 ovarian
MDA-MB-231 breast = system: MDA-MB-231 breast
T-47D breast = system: T-47D breast
SF-268 CNS = system: SF-268 CNS
HOP-92 NSCLC = system: HOP-92 NSCLC
SF-539 CNS = system: SF-539 CNS
SN12C renal = system: SN12C renal
COLO 205 colon = system: COLO 205 colon
NCI-H23 lung = system: NCI-H23 lung
MCF7 breast = system: MCF7 breast
HCT-116 colon = system: HCT-116 colon
ACHN renal = system: ACHN renal
NCI-H226 lung = system: NCI-H226 lung
A498 renal = system: A498 renal
K-562 leukemia = system: K-562 leukemia
SK-MEL-2 melanoma = system: SK-MEL-2 melanoma
SNB-75 CNS = system: SNB-75 CNS
SW-620 colon = system: SW-620 colon
HS 578T breast = system: HS 578T breast
MDA-MB-468 breast = system: MDA-MB-468 breast
UACC-257 melanoma = system: UACC-257 melanoma
OVCAR-4 ovarian = system: OVCAR-4 ovarian
NCI-H460 lung = system: NCI-H460 lung
MALME-3M melanoma = system: MALME-3M melanoma
DU-145 prostate = system: DU-145 prostate
OVCAR-3 ovarian = system: OVCAR-3 ovarian
SK-MEL-5 melanoma = system: SK-MEL-5 melanoma
UACC-62 melanoma = system: UACC-62 melanoma
CCRF-CEM leukemia = system: CCRF-CEM leukemia
SK-MEL-28 melanoma = system: SK-MEL-28 melanoma

With `COP(=O)(CC(F)(F)C(F)(F)F)OC` the GI50 (U251 CNS) was 17.6 µM, the TGI (U251 CNS) was 38 µM and the GI50 (HL-60(TB) leukemia) was 2150 nM. For the same compound, the TGI (HL-60(TB) leukemia) was 5.33 µM, the GI50 (EKVX NSCLC) was 2710 nM and the TGI (EKVX NSCLC) was 8.33 µM. For the same compound, the GI50 (TK-10 renal) was 3.08 µM, the TGI (TK-10 renal) was 7.36 µM and the GI50 (RXF 393 renal) was 1330 nM. The TGI (RXF 393 renal) was 2920 nM, the GI50 (LOX IMVI melanoma) was 1700 nM and the TGI (LOX IMVI melanoma) was 3.54 µM. The GI50 (RPMI-8226 leukemia) was 3.07 µM, the TGI (RPMI-8226 leukemia) was 8.49 µM and the GI50 (OVCAR-8 ovarian) was 17.2 µM. It also gave a TGI (OVCAR-8 ovarian) of 84.2 µM, a GI50 (SR leukemia) of 3.15 µM and a TGI (SR leukemia) of 12.2 µM. The GI50 (KM12 colon) was 19.4 µM, the TGI (KM12 colon) was 40.1 µM and the GI50 (SNB-19 CNS) was 24.8 µM. It also gave a TGI (SNB-19 CNS) of 77 µM, a GI50 (NCI-H522 lung) of 1480 nM and a TGI (NCI-H522 lung) of 3.02 µM. It also gave a GI50 (OVCAR-5 ovarian) of 17.5 µM, a TGI (OVCAR-5 ovarian) of 32.2 µM and a GI50 (UO-31 renal) of 1710 nM. The TGI (UO-31 renal) was 3.64 µM, the GI50 (BT-549 breast) was 6.26 µM and the TGI (BT-549 breast) was 20.4 µM. It also gave a GI50 (HT29 colon) of 2460 nM, a TGI (HT29 colon) of 5.17 µM and a GI50 (MDA-MB-435) of 6.7 µM. For the same compound, the TGI (MDA-MB-435) was 22.4 µM, the GI50 (PC-3 prostate) was 7.87 µM and the TGI (PC-3 prostate) was 25.2 µM. It also gave a GI50 (IGROV1 ovarian) of 19.9 µM, a TGI (IGROV1 ovarian) of 42.5 µM and a GI50 (HCC-2998 colon) of 13.6 µM. For the same compound, the TGI (HCC-2998 colon) was 27 µM, the GI50 (SF-295 CNS) was 16.5 µM and the TGI (SF-295 CNS) was 31.8 µM. The GI50 (CAKI-1 renal) was 2600 nM, the TGI (CAKI-1 renal) was 6.49 µM and the GI50 (HCT-15 colon) was 1760 nM. The TGI (HCT-15 colon) was 4.93 µM, the GI50 (786-0 renal) was 6.27 µM and the TGI (786-0 renal) was 20.4 µM. It also gave a GI50 (NCI/ADR-RES ovarian) of 2830 nM, a TGI (NCI/ADR-RES ovarian) of 10.2 µM and a GI50 (A549 NSCLC) of 22.1 µM. For the same compound, the TGI (A549 NSCLC) was 53.1 µM, the GI50 (M14 melanoma) was 1800 nM and the TGI (M14 melanoma) was 3.77 µM. It also gave a GI50 (MOLT-4 leukemia) of 3.06 µM, a TGI (MOLT-4 leukemia) of 10.8 µM and a GI50 (HOP-62 NSCLC) of 22.7 µM. The TGI (HOP-62 NSCLC) was 52.7 µM, the GI50 (SK-OV-3 ovarian) was 30.1 µM and the TGI (SK-OV-3 ovarian) was 76.1 µM. It also gave a GI50 (MDA-MB-231 breast) of 8.95 µM, a TGI (MDA-MB-231 breast) of 22.9 µM and a GI50 (T-47D breast) of 2360 nM. The TGI (T-47D breast) was 7.99 µM, the GI50 (SF-268 CNS) was 24.2 µM and the TGI (SF-268 CNS) was 64.2 µM. It also gave a GI50 (HOP-92 NSCLC) of 3.89 µM, a TGI (HOP-92 NSCLC) of 13.1 µM and a GI50 (SF-539 CNS) of 2550 nM. It also gave a TGI (SF-539 CNS) of 7.21 µM, a GI50 (SN12C renal) of 18.5 µM and a TGI (SN12C renal) of 37.5 µM. The GI50 (COLO 205 colon) was 1990 nM, the TGI (COLO 205 colon) was 3.62 µM and the GI50 (NCI-H23 lung) was 7.36 µM. It also gave a TGI (NCI-H23 lung) of 21.4 µM, a GI50 (MCF7 breast) of 2050 nM and a TGI (MCF7 breast) of 10.5 µM. For the same compound, the GI50 (HCT-116 colon) was 2210 nM, the TGI (HCT-116 colon) was 5.99 µM and the GI50 (ACHN renal) was 2120 nM. For the same compound, the TGI (ACHN renal) was 4.52 µM, the GI50 (NCI-H226 lung) was 23.2 µM and the TGI (NCI-H226 lung) was 73.1 µM. The GI50 (A498 renal) was 22.1 µM, the TGI (A498 renal) was 41.1 µM and the GI50 (K-562 leukemia) was 2930 nM. It also gave a TGI (K-562 leukemia) of 14.3 µM, a GI50 (SK-MEL-2 melanoma) of 16.3 µM and a TGI (SK-MEL-2 melanoma) of 38.4 µM. For the same compound, the GI50 (SNB-75 CNS) was 4.93 µM, the TGI (SNB-75 CNS) was 55.3 µM and the GI50 (SW-620 colon) was 2040 nM. The TGI (SW-620 colon) was 4.2 µM, the GI50 (HS 578T breast) was 15.1 µM and the TGI (HS 578T breast) was 79.4 µM. The GI50 (MDA-MB-468 breast) was 1350 nM, the TGI (MDA-MB-468 breast) was 3.16 µM and the GI50 (UACC-257 melanoma) was 1940 nM. For the same compound, the TGI (UACC-257 melanoma) was 5.83 µM, the GI50 (OVCAR-4 ovarian) was 14 µM and the TGI (OVCAR-4 ovarian) was 30 µM. For the same compound, the GI50 (NCI-H460 lung) was 18 µM, the TGI (NCI-H460 lung) was 38.1 µM and the GI50 (MALME-3M melanoma) was 2320 nM. It also gave a TGI (MALME-3M melanoma) of 5.62 µM, a GI50 (DU-145 prostate) of 10.5 µM and a TGI (DU-145 prostate) of 24.5 µM. The GI50 (OVCAR-3 ovarian) was 3.44 µM, the TGI (OVCAR-3 ovarian) was 12.1 µM and the GI50 (SK-MEL-5 melanoma) was 5.98 µM. For the same compound, the TGI (SK-MEL-5 melanoma) was 19.2 µM, the GI50 (UACC-62 melanoma) was 4.95 µM and the TGI (UACC-62 melanoma) was 18 µM. It also gave a GI50 (CCRF-CEM leukemia) of 2430 nM, a TGI (CCRF-CEM leukemia) of 8.68 µM and a GI50 (SK-MEL-28 melanoma) of 1870 nM. The TGI (SK-MEL-28 melanoma) was 3.89 µM.
